How the values were obtained:
all tested cell lines = test: Caspase-Glo 3/7 activity assay, all tested cell lines; format: cell-based; details: IC50 concentration, 24 h; vs vehicle
GammaD12 = details: IC50 concentration, 24 h, vs vehicle
Protocol: According to instructions, Caspase-Glo® 3/7 assay (Promega GmbH, Mannheim, Germany) was used for monitoring caspase activity. Briefly, the same volume Caspase-Glo reagent as culture medium was added and incubated 1 h at room temperature. Luminescence was read with a Victor3 Wallac 1420 Multilabel counter (PerkinElmer, Rodgau, Germany). Background absorbance (medium only) was subtracted and the data given as percent of vehicle controls.

A2C12 = test: Whole genome expression analysis (Affymetrix microarray); format: cell-based, mouse
Protocol: (§1) The cells were harvested and RNA was isolated using RNeasy Mini Kit (Qiagen, Hilden, Germany) according to the instructions of the manufacturer. The isolated RNA (250 ng) was processed further using standard protocols as described recently with the exception of the 3′ IVT Express Kit (Affymetrix, High Wycombe, UK) that was utilized according to instructions. Quality control of cRNA was done with the Agilent 2100 Bioanalyzer (Agilent Tech according to manufacturer's protocols. Following fragmentation, cRNA of each sample was hybridized to Affymetrix GeneChip® Mouse Genome 430 2.0 or Human Genome U133 Plus 2.0 and scanned with an Affymetrix 3000 7G scanner.
(§2) The resultant data was normalized by Probe Logarithmic Intensity Error Estimation (PLIER) algorithm. Statistical analysis was carried out with the ArrayTrack software (National Center for Toxicological Research/FDA, Jefferson, AR, USA) using SAM algorithm.

GammaA3 = test: as above; format: cell-based, mouse
Protocol: as §1, §2

tumour cell lines = test: Cell cycle analysis, statements over the cell line panel; format: cell-based; details: IC50 concentration, 96 h
Protocol: CycleTEST™ PLUS DNA Reagent Kit (Becton Dickinson GmbH, Heidelberg, Germany) for cell cycle analysis was used, according to the instructions of the manufacturer. Briefly, the cells were harvested with trypsin, washed with PBS, and resuspended in CycleTEST Buffer. The cells were centrifuged and resuspended in solution A. After incubation for 10 min at room temperature, solution B was added and incubated. After adding solution C, the samples were incubated at 4°C protected from light. The samples were stored on ice and protected from light until analysis by FACScan flow cytometer (Becton Dickinson GmbH, Heidelberg, Germany).

[1] = IC50 concentration, 96 h, SAM FDR<0.01, FC>2

In the case of `Fc1ccccc1CNc1ncnc2c1cnn2CC(Cl)c1ccc(Br)cc1` (stereo not shown) [Si162], the “Change of caspase-3/7 activity in all cell lines” value (all tested cell lines) is reported as “increased”, the “Increase in caspase-3/7 activity” value (GammaD12) is reported as “up to 3 fold” and the “Actg2 (actin, gamma 2, smooth muscle, enteric) regulated gene, Si162 vs Ktr FC” value (A2C12) is reported as -4.94. The “Ccl5 (chemokine (C-C motif) ligand 5) regulated gene, Si162 vs Ktr FC” value (A2C12) was 2.52, the “Ccna2 (cyclin A2) regulated gene, Si162 vs Ktr FC” value (A2C12) was -4.48 and the “Ccnb2 (cyclin B2) regulated gene, Si162 vs Ktr FC” value (A2C12) was -4.51. For the same compound, the “Cenpa (centromere protein A) regulated gene, Si162 vs Ktr FC” value (A2C12) was -4.34, the “Ctsb (cathepsin B) regulated gene, Si162 vs Ktr FC” value (A2C12) was 1.13 and the “Cxcl12 (chemokine (C-X-C motif) ligand 12) regulated gene, Si162 vs Ktr FC” value (A2C12) was -1.05. For the same compound, the “Errfi1 (ERBB receptor feedback inhibitor 1) regulated gene, Si162 vs Ktr FC” value (A2C12) was -4.38, the “Gadd45a (growth arrest and DNA-damage-inducible, alpha) regulated gene, Si162 vs Ktr FC” value (A2C12) was 1.40 and the “Itga5 (integrin, alpha 5 (fibronectin receptor, alpha polypeptide)) regulated gene, Si162 vs Ktr FC” value (A2C12) was -4.81. For the same compound, the “Mdm2 (Mdm2 p53 binding protein homolog (mouse)) regulated gene, Si162 vs Ktr FC” value (A2C12) was 1.88, the “Mmp3 (matrix metallopeptidase 3 (stromelysin 1, progelatinase)) regulated gene, Si162 vs Ktr FC” value (A2C12) was 3.28 and the “Mmp13 (matrix metallopeptidase 13 (collagenase 3)) regulated gene, Si162 vs Ktr FC” value (A2C12) was 3.90. The “Nfib (nuclear factor I/B) regulated gene, Si162 vs Ktr FC” value (A2C12) was -4.56, the “Ogn (osteoglycin) regulated gene, Si162 vs Ktr FC” value (A2C12) was -5.77 and the “Pdgfrb (platelet-derived growth factor receptor, beta polypeptide) regulated gene, Si162 vs Ktr FC” value (A2C12) was -4.68. For the same compound, the “Plk1 (polo-like kinase 1 (Drosophila)) regulated gene, Si162 vs Ktr FC” value (A2C12) was -4.48, the “Ptn (pleiotrophin) regulated gene, Si162 vs Ktr FC” value (A2C12) was -4.92 and the “Sfrp1 (secreted frizzled-related protein 1) regulated gene, Si162 vs Ktr FC” value (A2C12) was 1.12. The “Spp1 (secreted phosphoprotein 1) regulated gene, Si162 vs Ktr FC” value (A2C12) was 1.21, the “Srf (serum response factor) regulated gene, Si162 vs Ktr FC” value (A2C12) was -4.68 and the “Tgfb1i1 (transforming growth factor beta 1 induced transcript 1) regulated gene, Si162 vs Ktr FC” value (A2C12) was -4.59. For the same compound, the “Tgfb3 (transforming growth factor, beta 3) regulated gene, Si162 vs Ktr FC” value (A2C12) was -4.49, the “Tlr4 (toll-like receptor 4) regulated gene, Si162 vs Ktr FC” value (A2C12) was 1.09 and the “Tnc (tenascin C) regulated gene, Si162 vs Ktr FC” value (A2C12) was -5.20. The “Tp53 (tumor protein p53) regulated gene, Si162 vs Ktr FC” value (A2C12) was -4.50, the “Zyx (zyxin) regulated gene, Si162 vs Ktr FC” value (A2C12) was -5.47 and the “Significantly regulated genes, total (number)” value (A2C12; IC50 concentration, 96 h) was > 500. The “Significantly differentially regulated genes, downregulated (number)” value (A2C12; [1]) was 212, the “Significantly differentially regulated genes, upregulated (number)” value (A2C12; [1]) was 357 and the “Actg2 (actin, gamma 2, smooth muscle, enteric) regulated gene, Si162 vs Ktr FC” value (GammaA3) was -4.78. The “Bcl2l11 (BCL2-like 11 (apoptosis facilitator) (Bim)) regulated gene, Si162 vs Ktr FC” value (GammaA3) was 1.33, the “Birc5 (baculoviral IAP repeat-containing 5) regulated gene, Si162 vs Ktr FC” value (GammaA3) was -3.04 and the “Capn5 (calpain 5) regulated gene, Si162 vs Ktr FC” value (GammaA3) was 1.96. For the same compound, the “Casp6 (caspase 6, apoptosis-related cysteine peptidase) regulated gene, Si162 vs Ktr FC” value (GammaA3) was 1.07, the “Ccna2 (cyclin A2) regulated gene, Si162 vs Ktr FC” value (GammaA3) was -2.93 and the “Ccnb2 (cyclin B2) regulated gene, Si162 vs Ktr FC” value (GammaA3) was -2.44. For the same compound, the “Cdc2 (cell division cycle 2 (Cdk1)) regulated gene, Si162 vs Ktr FC” value (GammaA3) was -2.12, the “Cdkn1a (cyclin-dependent kinase inhibitor 1A (p21Cip1)) regulated gene, Si162 vs Ktr FC” value (GammaA3) was 1.27 and the “Cdkn2b (cyclin-dependent kinase inhibitor 2B (p15)) regulated gene, Si162 vs Ktr FC” value (GammaA3) was 1.13. For the same compound, the “Cdkn3 (cyclin-dependent kinase inhibitor 3) regulated gene, Si162 vs Ktr FC” value (GammaA3) was -2.80, the “Cenpa (centromere protein A) regulated gene, Si162 vs Ktr FC” value (GammaA3) was -2.62 and the “Crk (v-crk sarcoma virus CT10 oncogene homolog (avian)) regulated gene, Si162 vs Ktr FC” value (GammaA3) was -2.00. The “Ctnnb1 (catenin (cadherin-associated protein), beta 1, 88kDa) regulated gene, Si162 vs Ktr FC” value (GammaA3) was 1.94, the “Ctsb (cathepsin B) regulated gene, Si162 vs Ktr FC” value (GammaA3) was 1.20 and the “Cxcl12 (chemokine (C-X-C motif) ligand 12) regulated gene, Si162 vs Ktr FC” value (GammaA3) was -2.74. The “Dgka (diacylglycerol kinase, alpha 80kDa) regulated gene, Si162 vs Ktr FC” value (GammaA3) was 2.90, the “Fas (Fas (TNF receptor superfamily, member 6)) regulated gene, Si162 vs Ktr FC” value (GammaA3) was 1.40 and the “Gadd45a (growth arrest and DNA-damage-inducible, alpha) regulated gene, Si162 vs Ktr FC” value (GammaA3) was 2.78. The “Grb10 (growth factor receptor-bound protein 10) regulated gene, Si162 vs Ktr FC” value (GammaA3) was 3.65, the “Gsk3b (glycogen synthase kinase 3 beta) regulated gene, Si162 vs Ktr FC” value (GammaA3) was 1.12 and the “Itga6 (integrin, alpha 6) regulated gene, Si162 vs Ktr FC” value (GammaA3) was 4.04. For the same compound, the “Jakmip3 (janus kinase and microtubule interacting protein 3) regulated gene, Si162 vs Ktr FC” value (GammaA3) was 4.07, the “Lrdd (leucine-rich repeats and death domain containing (Pidd)) regulated gene, Si162 vs Ktr FC” value (GammaA3) was 1.03 and the “Mdm2 (Mdm2 p53 binding protein homolog (mouse)) regulated gene, Si162 vs Ktr FC” value (GammaA3) was 2.15. The “Mmp3 (matrix metallopeptidase 3 (stromelysin 1, progelatinase)) regulated gene, Si162 vs Ktr FC” value (GammaA3) was 2.73, the “Mmp13 (matrix metallopeptidase 13 (collagenase 3)) regulated gene, Si162 vs Ktr FC” value (GammaA3) was 2.98 and the “Nfib (nuclear factor I/B) regulated gene, Si162 vs Ktr FC” value (GammaA3) was -1.23. For the same compound, the “Notch3 (Notch homolog 3 (Drosophila)) regulated gene, Si162 vs Ktr FC” value (GammaA3) was 2.78, the “Ogn (osteoglycin) regulated gene, Si162 vs Ktr FC” value (GammaA3) was -5.01 and the “Perp (PERP, TP53 apoptosis effector) regulated gene, Si162 vs Ktr FC” value (GammaA3) was 6.09. The “Pik3ca (phosphoinositide-3-kinase, catalytic, alpha polypeptide) regulated gene, Si162 vs Ktr FC” value (GammaA3) was 1.27, the “Plcg2 (phospholipase C, gamma 2) regulated gene, Si162 vs Ktr FC” value (GammaA3) was 1.36 and the “Plk1 (polo-like kinase 1 (Drosophila)) regulated gene, Si162 vs Ktr FC” value (GammaA3) was -3.17. The “Pmaip1 (phorbol-12-myristate-13-acetate-induced protein 1 (Noxa)) regulated gene, Si162 vs Ktr FC” value (GammaA3) was 1.94, the “Ptk2 (PTK2 protein tyrosine kinase 2 (FAK)) regulated gene, Si162 vs Ktr FC” value (GammaA3) was 1.99 and the “Rock1 (Rho-associated, coiled-coil containing protein kinase 1) regulated gene, Si162 vs Ktr FC” value (GammaA3) was 1.14. For the same compound, the “Spp1 (secreted phosphoprotein 1) regulated gene, Si162 vs Ktr FC” value (GammaA3) was 1.01, the “Srf (serum response factor) regulated gene, Si162 vs Ktr FC” value (GammaA3) was -1.12 and the “Tec (tec protein tyrosine kinase) regulated gene, Si162 vs Ktr FC” value (GammaA3) was 3.51. For the same compound, the “Tgfb2 (transforming growth factor, beta 2) regulated gene, Si162 vs Ktr FC” value (GammaA3) was -1.69, the “Tnc (tenascin C) regulated gene, Si162 vs Ktr FC” value (GammaA3) was -1.32 and the “Zyx (zyxin) regulated gene, Si162 vs Ktr FC” value (GammaA3) was -1.59. For the same compound, the “Significantly regulated genes, total (number)” value (GammaA3; IC50 concentration, 96 h) was “more than 3500”, the “Significantly differentially regulated genes, downregulated (number)” value (GammaA3; [1]) was 1139 and the “Significantly differentially regulated genes, upregulated (number)” value (GammaA3; [1]) was 2453. The “Cell cycle arrest (phase, in words)” value (tumour cell lines) was “arrest in G2/M”.

Source: article PMC2994747, “Molecular Characterization of c-Abl/c-Src Kinase Inhibitors Targeted against Murine Tumour Progenitor Cells that Express Stem Cell Markers” (PLoS ONE, 2010)
